Results: PMC11574108, “4-Furanylvinylquinoline derivative as a new scaffold for the design of oxidative stress initiator and glucose transporter inhibitor drugs” (Scientific Reports, 2024)
Where two headings read alike, the source gives them in different places.

Legend:
HCT 116 p53+/+ spheroids = assay: 3D spheroid cell viability assay; assay type: cell-based, human; conditions: 3D spheroids, CellTiter-Glo 3D, 72-h treatment, read-out: IC50 HCT 116 p53+/+ (3D model)
Experimental: The HCT 116 cell lines, AsPC-1, PANC-1 (5,000), and U-251 cells (8,000) in 100 µL of medium were seeded in 96-well ULA Corning spheroid microplates (Sigma-Aldrich) and incubated for 72 h at 37 °C to form spheroids. The medium from each well was then gently removed and freshly prepared solutions of 13 were added. The treated spheroids were incubated for the next 72-h. Afterward, cell viability assays were performed using CellTiter-Glo 3D Reagent (Promega) according to the manufacturer’s protocol. Briefly, CellTiter-Glo 3D Reagent was added in equal volume to the medium in each well. The plate was vigorously mixed for 5 min and then incubated for 25 min at room temperature. The luminescence was measured using a multiplate reader (Synergy 4, BioTek). The experiment for each sample was performed at least three times. The results from the assay are presented as IC50 values, which were calculated using GraphPad Prism v.8.0 (USA).
To confirm the cytotoxicity ranking, the viability of the cells was also estimated on a 3D spheroid model, which better represented a solid tumour. […] The cell lines that represented pancreatic cancer were less responsive to derivative 13, which was similar to the 2D model. […]

PANC-1 = assay: Monolayer antiproliferative MTS assay; assay type: cell-based, human; conditions: 2D monolayer; for IC50: MTS, 72-h incubation
Experimental: (§1) The cells were seeded in 96-well plates (Nunc) with 5,000 or 4,000 cells per well for the cancer cells and NHDF, respectively, and incubated under standard conditions at 37 °C overnight. The culture media were then changed for freshly prepared solutions of the tested compounds in various concentrations. After 72-h incubation the antiproliferative assay was carried out as follows: the solutions of the compounds were changed in each well to 100 µL DMEM without phenol red and 20 µL of CellTiter 96 AQueous One Solution-MTS (Promega). The plates were incubated for 1 h at 37 °C, and the absorbance was then measured at 490 nm using a multi-plate reader (Synergy 4, BioTek). The experiment for each sample was repeated at least three times. The results are presented as the half-maximal inhibitory concentration (IC50) values, which were estimated in comparison to untreated cells (control) and calculated using GraphPad Prism v.8.0 (USA).
(§2) However, the antiproliferative activity of derivative 13 with furan a ring was surprising. […] For this purpose, we selected two pancreatic cancer cell lines: AsPC-1, which is characterised by a deletion of the p53 protein[20] and PANC-1, which carries an R273H mutation. This mutation also occurred in the glioblastoma U-251 cell line[22],[23]. An additional non-adherent line that carries the TP53 mutation that results in the absence of p53 is the K562 leukemic cell line[24]. […] Moreover, 13 was selective toward […], as indicated by its SI values (3.35–9.41). Among all of the tested cell lines, the highest activity of the compound was found against the HCT 116 cells with the wild-type p53 protein (0.069 µM). […] The p53 protein also interacts with the metabolic pathways that are associated with glucose transport[25] as well as small molecules. In light of the above-mentioned facts, we also determined the cytotoxicity of the GLUT inhibitor BAY-876, which is based on a quinoline scaffold. […] Furthermore, BAY-876 was also toxic to normal cells.

AsPC-1 = assay: Monolayer antiproliferative MTS assay; assay type: cell-based, human; conditions: 2D monolayer; for IC50: MTS, 72-h incubation
Experimental: as §1, §2

HCT 116 p53+/+ = assay: Apoptosis induction assay (Annexin V/7-AAD); assay type: cell-based, human; conditions: 0.5 µM, 48 h; control nearly 6%
Experimental: (§3) The cells were seeded in 35 mm Petri dishes (200,000 per dish) and incubated at 37 °C overnight. The following day, the medium was changed for a freshly prepared 0.5 µM solution of 13. Analysis was carried out after 48 h using an FITC Annexin V Apoptosis Detection KIT with 7-AAD (Bio-Legend) according to the manufacturer’s protocol. In brief, both adherent and detached cells were collected, washed two times with cold PBS, and centrifuged at 300 g (5 min). Next, the cells were resuspended in 100 µL Annexin V Binding Buffer, 5 µL of FITC Annexin V, and 5 µL 7-AAD Viability Staining Solution. The samples were incubated in the dark for 15 min at room temperature. The percentage of live and apoptotic (sum of early and late apoptotic) cells was estimated using a Muse™ Cell Analyzer. The experiments were carried out three times.
(§4) Because derivative 13 affected the cell cycle progression, we decided to determine the type of induced cell death by focusing on the apoptosis pathway. The analysis was performed by measuring the green fluorescence of the annexin V – FITC dye conjugate using capillary flow cytometry. Positive staining is observed when the annexin V binds to the disintegrated membrane of apoptotic cells. […]

HCT 116 p53-/- = assay: Apoptosis induction assay (Annexin V/7-AAD); assay type: cell-based, human; conditions: 0.5 µM, 48 h; control nearly 6%
Experimental: as §3, §4

CT-DNA = assay: Intercalation, spectrophotometric study on CT-DNA; assay type: binding, calf; conditions: 18 µM CT-DNA, 1.5 h, 37 °C, absorption spectra
Experimental: Lyophilized calf-thymus DNA (CT-DNA; Sigma-Aldrich) was dissolved in 10 mM Tris-HCl (pH 7.9), mixed gently, and kept overnight at 4 °C. The purity of the CT-DNA solution was determined by measurement of the ratio of UV absorbance at 260 and 280 nm. […] The tested compound was dissolved in DMSO to give a concentration of 8.35 mM. This stock solution was used for preparing new solutions (25, 12.5, 6, and 3 µM) in 1 mL of 10 mM Tris-HCl (pH 7.9). Next, 18 µM CT-DNA was added to the prepared solutions, and the samples were incubated for 1.5 h at 37 °C with occasional vortexing. The measurements of the absorption spectra were performed using a Hitachi U-2900 spectrophotometer in the range of 200–500 nm. The obtained data were analysed using GraphPad Prism v.8.0 (USA).
To determine whether and to what extent the compound interacts with DNA, we also performed a spectrophotometric study on CT-DNA. […] (Fig. S2). Nevertheless, under the effect of stress-induced DNA damage in cells, […], which inhibited the CDK1 and cyclin B1 complex. This had the effect of arresting the cell cycle in the G2/M phase in an attempt to repair the DNA damages or induce apoptosis[29],[30]. Abnormal CDK1 activation is often thought to be connected with tumourigenesis. […]

O=[N+]([O-])c1ccc(/C=C/c2ccnc3ccccc23)o1 [Compound 13]
IC50 (HCT 116 p53+/+ spheroids): 1160 ± 190 nM | IC50 (HCT 116 p53+/+ spheroids; Homo sapiens, HCT-116, 72 h): ~1000 nM | IC50 (PANC-1): 193 ± 8 nM | SI (selectivity index) PANC-1 (PANC-1; relative to NHDF): 3.36 | IC50 (PANC-1; Homo sapiens, PANC-1, 72 h): ≤ 200 nM | IC50 (AsPC-1): 123 ± 7 nM | SI (selectivity index) AsPC-1 (AsPC-1; relative to NHDF): 5.28 | IC50 (AsPC-1; Homo sapiens, ASPC1, 72 h): ≤ 200 nM | percentage of apoptotic cells (HCT 116 p53+/+): 40% | percentage of apoptotic cells (HCT 116 p53-/-): 30% | hypochromism (CT-DNA): 10.97%
